Experimental data: patent US20240409585A1, “MACROCYCLIC IMMUNOMODULATORS” (priority 2021, published 2024)
Bridge positions count the residues as written; N and C are the ends. Square brackets hold non-standard residues; d marks the D form. Peptide text beside a SMILES is read from it. * marks the point of attachment. Phe(4-(4-pyridyl)) = N[C@@H](Cc1ccc(-c2ccncc2)cc1)C(=O)O; Phe(4-COOH) = N[C@@H](Cc1ccc(C(=O)O)cc1)C(=O)O; Phe(4-CH2NH2) = NCc1ccc(C[C@H](N)C(=O)O)cc1; Bip = N[C@@H](Cc1ccc(-c2ccccc2)cc1)C(=O)O; Phe(3-OMe) = COc1cccc(C[C@H](N)C(=O)O)c1; Ala(2-furyl) = N[C@@H](Cc1ccco1)C(=O)O; Phe(3-Me) = Cc1cccc(C[C@H](N)C(=O)O)c1; 4Pal = N[C@@H](Cc1ccncc1)C(=O)O; pS = N[C@@H](COP(=O)(O)O)C(=O)O; Cha = N[C@@H](CC1CCCCC1)C(=O)O; Cit = NC(=O)NCCC[C@H](N)C(=O)O; Pip = O=C(O)[C@@H]1CCCCN1; Carboxymethyl = O=C(O)C*; NMeA = CN[C@@H](C)C(=O)O; Orn = NCCC[C@H](N)C(=O)O; Dab = NCC[C@H](N)C(=O)O; Dap = NC[C@H](N)C(=O)O

Each compound was assayed against T1, PE-labeled human PD-L1-Ig binding to Jurkat cell line over-expressing human PD-1 (Jurkat-PD-1) (Homo sapiens, UniProt Q15116) (assay: Jurkat-PD-1 Cell Binding High-Content Screening Assay (CBA): Method 1). Settings: Jurkat-hPD-1 cells, PE-labeled PD-L1-Ig 20 nM final; read-out: Jurkat HPDL1 PD1 IC50 (uM) (Method 1).
T1 construct: expressed in transfected cells; host or cells: Jurkat
T1 sequence (Q15116 25-288): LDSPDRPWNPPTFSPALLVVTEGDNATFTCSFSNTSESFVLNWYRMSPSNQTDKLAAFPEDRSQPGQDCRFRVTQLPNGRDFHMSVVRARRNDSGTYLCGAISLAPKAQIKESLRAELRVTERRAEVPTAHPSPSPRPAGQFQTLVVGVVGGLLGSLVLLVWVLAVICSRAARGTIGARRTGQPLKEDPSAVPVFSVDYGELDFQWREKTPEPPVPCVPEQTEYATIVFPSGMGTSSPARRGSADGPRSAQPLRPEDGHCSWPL

Going from `COc1cccc(C[C@@H]2NC(=O)[C@H](CC(=O)O)NC(=O)[C@H](Cc3ccc(OCC(=O)O)cc3)NC(=O)[C@H](CN)NC(=O)CSC[C@@H](C(=O)N[C@@H](C)C(N)=O)NC(=O)[C@H]([C@@H](C)O)NC(=O)[C@H](C(C)C)NC(=O)[C@H](CC(C)C)NC(=O)[C@H](CCN)NC(=O)[C@@H](CC(C)C)NC(=O)[C@H](C)N(C)C(=O)[C@H](CCCNC(N)=O)NC(=O)[C@H](Cc3ccc(-c4ccccc4)cc3)NC(=O)[C@H](C(C)C)NC2=O)c1` [Compound 1448] ({CH2CO}-[Dap]Y(Carboxymethyl)D[Phe(3-OMe)]V[Bip][Cit][NMeA][dL][Dab]LVTCA-NH2; thioether N-14) to `CC(C)C[C@@H]1NC(=O)[C@H](CCN)NC(=O)[C@@H](CC(C)C)NC(=O)[C@H](C)N(C)C(=O)[C@H](CCCNC(N)=O)NC(=O)[C@H](Cc2ccc(-c3ccccc3)cc2)NC(=O)[C@H](C(C)C)NC(=O)[C@H](Cc2c[nH]c3ccccc23)NC(=O)[C@H](CC(=O)O)NC(=O)[C@H](Cc2ccc(CN)cc2)NC(=O)[C@H](CC(N)=O)NC(=O)CSC[C@@H](C(=O)N[C@@H](C)C(N)=O)NC(=O)[C@H]([C@@H](C)O)NC(=O)[C@H](C(C)C)NC1=O` [Compound 1322] ({CH2CO}-N[Phe(4-CH2NH2)]DWV[Bip][Cit][NMeA][dL][Dab]LVTCA-NH2; thioether N-14), the IC50 falls from 0.06 µM to 0.02 µM (3-fold). The second is the more potent here.

Compared with `Cc1cccc(C[C@@H]2NC(=O)[C@H](CC(=O)O)NC(=O)[C@H](Cc3ccc(OCC(=O)O)cc3)NC(=O)[C@H](CN)NC(=O)CSC[C@@H](C(N)=O)NC(=O)[C@H]([C@@H](C)O)NC(=O)[C@H](C(C)C)NC(=O)[C@H](CC3CCCCC3)NC(=O)[C@H](CCN)NC(=O)[C@@H](CC(C)C)NC(=O)[C@@H]3CCCCN3C(=O)[C@H](Cc3ccc(OCC(=O)O)cc3)NC(=O)[C@H](Cc3ccc(-c4ccccc4)cc3)NC(=O)[C@H](Cc3ccc(OCC(=O)O)cc3)NC2=O)c1` [Compound 1891] ({CH2CO}-[Dap]Y(Carboxymethyl)D[Phe(3-Me)]Y(Carboxymethyl)[Bip]Y(Carboxymethyl)[Pip][dL][Dab][Cha]VTC-NH2; thioether N-14), `Cc1cccc(C[C@@H]2NC(=O)[C@H](CC(=O)O)NC(=O)[C@H](Cc3ccc(C(=O)O)cc3)NC(=O)[C@H](Cc3ccncc3)NC(=O)CSC[C@@H](C(N)=O)NC(=O)[C@H](CCCN)NC(=O)[C@H](C(C)C)NC(=O)[C@H](CC3CCCCC3)NC(=O)[C@H](CCN)NC(=O)[C@@H](CC(C)C)NC(=O)[C@H](C)N(C)C(=O)[C@H](CCCNC(N)=O)NC(=O)[C@H](Cc3ccc(-c4ccccc4)cc3)NC(=O)[C@H](C(C)C)NC2=O)c1` [Compound 1897] ({CH2CO}-[4Pal][Phe(4-COOH)]D[Phe(3-Me)]V[Bip][Cit][NMeA][dL][Dab][Cha]V[Orn]C-NH2; thioether N-14) is 15-fold lower in IC50: 0.15 µM for the first, 0.01 µM for the second.

Going from `CC(C)C[C@@H]1NC(=O)[C@H](CCCNC(=N)N)NC(=O)[C@@H](CC(C)C)NC(=O)[C@H](C)N(C)C(=O)[C@H](CCCNC(=N)N)NC(=O)[C@H](Cc2ccc(-c3ccncc3)cc2)NC(=O)[C@H](C(C)C)NC(=O)[C@H](Cc2c[nH]c3ccccc23)NC(=O)[C@H](CC(=O)O)NC(=O)[C@H](Cc2ccc(O)cc2)NC(=O)[C@H](Cc2ccccc2)NC(=O)CSC[C@@H](C(=O)N[C@@H](C)C(N)=O)NC(=O)[C@H]([C@@H](C)O)NC(=O)[C@H](C(C)C)NC1=O` [Compound 1078] ({CH2CO}-FYDWV[Phe(4-(4-pyridyl))]R[NMeA][dL]RLVTCA-NH2; thioether N-14) to `CC(C)C[C@@H]1NC(=O)[C@H](CCCN)NC(=O)[C@@H](CC(C)C)NC(=O)[C@H](C)N(C)C(=O)[C@H](CCCNC(=N)N)NC(=O)[C@H](Cc2ccc(-c3ccccc3)cc2)NC(=O)[C@H](C(C)C)NC(=O)[C@H](Cc2c[nH]c3ccccc23)NC(=O)[C@H](CC(=O)O)NC(=O)[C@H](Cc2ccc(C(=O)O)cc2)NC(=O)[C@H](Cc2ccccc2)NC(=O)CSC[C@@H](C(=O)N[C@@H](C)C(N)=O)NC(=O)[C@H]([C@@H](C)O)NC(=O)[C@H](C(C)C)NC1=O` [Compound 1156] ({CH2CO}-F[Phe(4-COOH)]DWV[Bip]R[NMeA][dL][Orn]LVTCA-NH2; thioether N-14), the IC50 falls from 0.48 µM to 0.03 µM (16-fold). The second is the more potent here.

First: Cc1cccc(C[C@@H]2NC(=O)[C@H](CC(=O)O)NC(=O)[C@H](Cc3ccncc3)NC(=O)[C@H](Cc3ccc(OCC(=O)O)cc3)NC(=O)CSC[C@@H](C(=O)N[C@@H](CCC(=O)O)C(N)=O)NC(=O)[C@H](CO)NC(=O)[C@H](C(C)C)NC(=O)[C@H](CC(C)C)NC(=O)[C@H](CC(N)=O)NC(=O)[C@@H](CC(C)C)NC(=O)[C@H](C)N(C)C(=O)[C@H](C(C)C)NC(=O)[C@H](Cc3ccc(-c4ccccc4)cc3)NC(=O)[C@H](CC(C)C)NC2=O)c1 [Compound 1603] ({CH2CO}-Y(Carboxymethyl)[4Pal]D[Phe(3-Me)]L[Bip]V[NMeA][dL]NLVSCE-NH2; thioether N-14)
Second: CC(C)C[C@@H]1NC(=O)[C@H](CCN)NC(=O)[C@@H](CC(C)C)NC(=O)[C@H](C)N(C)C(=O)[C@H](CCC(=O)O)NC(=O)[C@H](Cc2ccc(-c3ccccc3)cc2)NC(=O)[C@H](C(C)C)NC(=O)[C@H](Cc2c[nH]c3ccccc23)NC(=O)[C@H](CC(=O)O)NC(=O)[C@H](Cc2ccc(OCC(=O)O)cc2)NC(=O)[C@H](Cc2ccncc2)NC(=O)CSC[C@@H](C(=O)N[C@@H](C)C(N)=O)NC(=O)[C@H](CO)NC(=O)[C@H](C(C)C)NC1=O [Compound 1575] ({CH2CO}-[4Pal]Y(Carboxymethyl)DWV[Bip]E[NMeA][dL][Dab]LVSCA-NH2; thioether N-14)
The IC50 of the first is 5-fold lower: 0.01 µM for the first, 0.05 µM for the second.

First: CC(C)C[C@@H]1NC(=O)[C@H](Cc2c[nH]c3ccccc23)NC(=O)[C@H](CC(=O)O)NC(=O)[C@H](Cc2ccncc2)NC(=O)[C@H](Cc2ccc(OCC(=O)O)cc2)NC(=O)CSC[C@@H](C(=O)N[C@H](CC(N)=O)C(N)=O)NC(=O)[C@H]([C@@H](C)O)NC(=O)[C@H](C(C)C)NC(=O)[C@H](CC2CCCCC2)NC(=O)[C@H](CCN)NC(=O)[C@@H](CC(C)C)NC(=O)[C@H](C)N(C)C(=O)[C@H](C(C)C)NC(=O)[C@H](Cc2ccc(-c3ccccc3)cc2)NC1=O [Compound 1903] ({CH2CO}-Y(Carboxymethyl)[4Pal]DWL[Bip]V[NMeA][dL][Dab][Cha]VTC[dN]-NH2; thioether N-14)
Second: CC(C)C[C@@H]1NC(=O)[C@H](Cc2c[nH]c3ccccc23)NC(=O)[C@H](COP(=O)(O)O)NC(=O)[C@H](Cc2ccc(O)cc2)NC(=O)[C@H](Cc2ccccc2)NC(=O)CSC[C@@H](C(=O)N[C@@H](C)C(N)=O)NC(=O)[C@H](CO)NC(=O)[C@H](C(C)C)NC(=O)[C@H](CC(C)C)NC(=O)[C@H](CC(N)=O)NC(=O)[C@@H](C)NC(=O)[C@H](C)N(C)C(=O)[C@H](C(C)C)NC(=O)[C@H](Cc2ccc(-c3ccccc3)cc2)NC1=O [Compound 1821] ({CH2CO}-FY[pS]WL[Bip]V[NMeA][dA]NLVSCA-NH2; thioether N-14)
The IC50 of the first is 12-fold lower: 0.04 µM for the first, 0.49 µM for the second. The first is the more potent here.

For `CC(C)C[C@@H]1NC(=O)[C@H](Cc2c[nH]c3ccccc23)NC(=O)[C@H](CC(=O)O)NC(=O)[C@H](Cc2ccco2)NC(=O)[C@H](Cc2ccccc2)NC(=O)CSC[C@@H](C(=O)N[C@@H](C)C(N)=O)NC(=O)[C@H](CO)NC(=O)[C@H](C(C)C)NC(=O)[C@H](CC(C)C)NC(=O)[C@H](CC(N)=O)NC(=O)[C@@H](C)NC(=O)[C@H](C)N(C)C(=O)[C@H](C(C)C)NC(=O)[C@H](Cc2ccc(-c3ccccc3)cc2)NC1=O` [Compound 1734] ({CH2CO}-F[Ala(2-furyl)]DWL[Bip]V[NMeA][dA]NLVSCA-NH2; thioether N-14), the IC50 was 0.01 µM.
